Structures can show the parent of a compound that is named as a salt.
Assay: in vitro
Conditions: rat, gh3-tre-luc cells, AC50 (uM) modified / 1000

| SMILES | CC50 at 24 h [µM] |
| --- | --- |
| CCCC[P+](CCCC)(CCCC)CCCC [Tetrabutylphosphonium bromide] | > 90 |
| COc1ccc(CN2CCN(C(c3ccc(F)cc3)c3ccc(F)cc3)CC2)c(OC)c1OC [Lomerizine dihydrochloride] | 10.5 |
| COc1cc2c(cc1OC)[C@@H](c1ccccc1)CN(C)CC2 [Trepipam maleate] | > 50 |
| CC1(C)[C@@H]2CC[C@@]1(C)C(=O)C2 [D-Camphor] | > 90 |
| Cc1ccc2c(c1)CCCN2 [6-Methyl-1,2,3,4-tetrahydroquinoline] | > 90 |
| O=P(O)(O)C(O)(Cc1cccnc1)P(=O)(O)O [Risedronate sodium] | > 50 |
| C=CC(C)(CCC=C(C)C)OC(=O)CC (centres unmarked) [3,7-Dimethylocta-1,6-dien-3-yl propanoate] | > 90 |
| O=C(O)c1cc(Cl)cc(Cl)c1 [3,5-Dichlorobenzoic acid] | > 90 |
| CC(=O)Nc1cccc(O)c1 [3-Acetamidophenol] | > 90 |
| NCCNCCNCCNCCN [Tetraethylenepentamine] | > 90 |
| CC(=O)/C=C/[C@H]1C(C)=CC[C@@H](C)C1(C)C [alpha-Irone] | > 90 |
| CCC(=O)c1ccc2c(c1)N(CCCN(C)C)c1ccccc1S2 [Propionylpromazine hydrochloride] | 6.21 |
| CCCCOc1cc(C(=O)NCCN(CC)CC)c2ccccc2n1 [Dibucaine] | 9.45 |
| O=C1CCCCO1 [Tetrahydro-2H-pyran-2-one] | > 90 |
| CCCCC[C@H](O)/C=C/[C@H]1[C@H](O)CC(=O)[C@@H]1C/C=C\CCCC(=O)O [Dinoprostone] | > 50 |
| CC(=O)Nc1cccc(C)c1 [N-Acetyl-m-toluidine] | > 90 |
| O=C(CCCN1CCC(n2c(=S)[nH]c3ccccc32)CC1)c1ccc(F)cc1 [Timiperone] | 23.9 |
| CC(C(=O)O)c1ccc(N2Cc3ccccc3C2=O)cc1 (centres unmarked) [Indoprofen] | > 50 |
| C[Si](C)(CCCN)O[Si](C)(C)CCCN [3,3'-(1,1,3,3-Tetramethyldisiloxane-1,3-diyl)dipropan-1-amine] | > 90 |
| C[C@]12CC[C@@H]3c4ccc(O)cc4CC[C@H]3[C@@H]1CC[C@@H]2O [17beta-Estradiol] | > 90 |
| c1ccc(CC2=NCCN2)cc1 [Tolazoline hydrochloride] | > 20 |
| Nc1cccc2c(=O)[nH][nH]c(=O)c12 [Luminol] | > 90 |
| CCC(c1ccccc1)c1noc(CCN(CC)CC)n1 (centres unmarked) [Proxazole citrate] | > 50 |
| Cc1nc(-c2ccc(Cl)cc2)oc1COC(C)(C)C(=O)O [Romazarit] | > 50 |
| Clc1cccc(SC2CCNCC2)n1 [Anpirtoline] | > 50 |

| SMILES | CC50 at 24 h [µM] |
| --- | --- |
| CC(=O)O[C@H]1CC[C@@]2(C)C(=CC[C@H]3[C@@H]4CC[C@H](C(C)=O)[C@@]4(C)CC[C@@H]32)C1 [3beta-Acetoxy-5-pregnene-20-one] | > 50 |
| C=CCCC=C [1,5-Hexadiene] | > 90 |
| CCOc1ccc(N=Nc2ccc(/C=C/c3ccc(N=Nc4ccc(OCC)cc4)cc3S(=O)(=O)O)c(S(=O)(=O)O)c2)cc1 [C.I. Direct Yellow 12] | 42.7 |
| O=C(OCCOCCOCCOC(=O)c1ccccc1)c1ccccc1 [Triethylene glycol dibenzoate] | > 90 |
| Cc1ccccc1S(N)(=O)=O [o-Toluenesulfonamide] | > 90 |
| CC(=O)/C=C/C1C(C)=CCCC1(C)C (stereo not drawn) [alpha-Ionone] | > 90 |
| NC[C@H](O)c1ccc(O)c(O)c1 [Norepinephrine] | 57.7 |
| CN1CCC(O)(c2ccc(F)cc2)C(C(=O)c2ccc(F)cc2)C1 (centres unmarked) [Flazalone] | 19.6 |
| O=C[C@H](O)[C@H]1OC(=O)[C@@H](O)[C@H]1O [D-Glucuronolactone] | > 90 |
| Cc1ccc(Cl)c(O)c1 [2-Chloro-5-methylphenol] | > 50 |
| CCCCNC(=O)NS(=O)(=O)c1ccc(N)cc1 [Carbutamide] | > 90 |
| CC(C)CC=O [3-Methylbutanal] | > 90 |
| CC1(C)S[C@@H]2[C@H](N=CN3CCCCCC3)C(=O)N2[C@H]1C(=O)O [Amdinocillin] | > 50 |
| CCCCCCCCOCCCN [3-(Octyloxy)propan-1-amine] | 11.8 |
| CC(C)(COP(=O)(O)OP(=O)(O)OC[C@H]1O[C@@H](n2cnc3c(N)ncnc32)[C@H](O)[C@@H]1OP(=O)(O)O)C(O)C(=O)NCCC(=O)NCCS (some centres unmarked) [Coenzyme A trilithium dihydrate] | > 50 |
| O=S(O)CNc1ccc(S(=O)(=O)c2ccc(NCS(=O)O)cc2)cc1 [Adesulfone sodium] | > 50 |
| Nc1ncnc(Nc2ccc(Cl)cc2)n1 [Chlorazanil] | > 50 |
| COc1nc(N)nc2nc[nH]c12 [O6-Methylguanine] | > 90 |
| C/C=C/c1ccc(O)c(OC)c1 [Isoeugenol] | > 90 |
| CN(C)CCc1c[nH]c2cccc(O)c12 [Psilocin] | > 90 |
| CC1=NN(c2ccc(C(=O)O)cc2)C(=O)C1 [4-(3-Methyl-5-oxo-4,5-dihydro-1H-pyrazol-1-yl)benzoic acid] | > 90 |
| Cl/C(=C\n1cncn1)c1ccc(Cl)cc1Cl [Loreclezole hydrochloride] | > 50 |
| Cc1ccc(C)c(OCCCC(C)(C)C(=O)O)c1 [Gemfibrozil] | > 90 |
| COc1nn(CSP(=S)(OC)OC)c(=O)s1 [Methidathion] | > 90 |
| C[C@H]1[C@H](OC(=O)CCC(=O)O)O[C@@H]2O[C@@]3(C)CC[C@H]4[C@H](C)CC[C@@H]1[C@@]24OO3 [Artesunate] | 2.69 |

| SMILES | CC50 at 24 h [µM] |
| --- | --- |
| CCCCCCC(=O)OCC [Ethyl heptanoate] | > 90 |
| CC(CCc1ccc(O)cc1)NCCc1ccc(O)c(O)c1 (centres unmarked) [Dobutamine] | > 50 |
| CCCCCCCCCCCCCCCCCC(=O)O [Triethanolamine stearate] | > 90 |
| CCCCOCCOCCOCCOCCO [3,6,9,12-Tetraoxahexadecan-1-ol] | > 90 |
| CC(C)=CC=O [3-Methylbut-2-enal] | > 100 |
| CNS(=O)(=O)Cc1ccc2[nH]cc(CCN(C)C)c2c1 [Sumatriptan] | > 50 |
| O=C(O)CNC(=O)c1ccccc1I [2-Iodohippuric acid] | > 50 |
| O=C(O)c1ccc(C(=O)O)cc1 [Terephthalic acid] | > 90 |
| CC(Cl)(Cl)Cl [1,1,1-Trichloroethane] | > 90 |
| CC1CCCC(=O)C1=O (centres unmarked) [3-Methylcyclohexane-1,2-dione] | > 90 |
| C=CC(=O)NCOCCCC [N-(Butoxymethyl)acrylamide] | > 100 |
| CCN(CC)CCOC(=O)C1(c2ccccc2)CCCC1 [Caramiphen edisylate] | 43.2 |
| CCOC(=O)/C=C/C(=O)OCC [Diethyl (2E)-but-2-enedioate] | > 90 |
| CN(C)CCc1c[nH]c2ccc(C[C@H]3COC(=O)N3)cc12 [Zolmitriptan] | > 50 |
| CCCC[N+](=O)[O-] [1-Nitrobutane] | > 90 |
| CCN(CC)Cc1nccn1-c1ccc([N+](=O)[O-])cc1C(=O)c1ccccc1Cl [Nizofenone] | > 50 |
| CC(=O)OCC(=O)[C@@]12N=C(C)O[C@@H]1C[C@H]1[C@@H]3CCC4=CC(=O)C=C[C@]4(C)[C@H]3[C@@H](O)C[C@@]12C [Deflazacort] | > 90 |
| Cc1cc(F)ccc1-c1cc(N2CC[C@@H](O)[C@H]2CO)ncc1N(C)C(=O)C(C)(C)c1cc(C(F)(F)F)cc(C(F)(F)F)c1 [PharmaGSID_48513] | 12.5 |
| O=C(Oc1ccccc1)c1ccccc1O [Phenyl salicylate] | > 50 |
| C[C@]12CC[C@H]3[C@@H](CC[C@@]45O[C@@H]4C(O)=C(C#N)C[C@]35C)[C@@H]1CC[C@@H]2O [Trilostane] | > 90 |
| O=C(O[C@H]1C[C@H]2CC[C@@H](C1)[N+]21CCCC1)C(O)(c1ccccc1)c1ccccc1 [Trospium chloride] | > 50 |
| CCN(CC)CCn1c(=O)c(Cc2ccc(OC)cc2)nc2ccccc21 [Caroverine hydrochloride] | 19.1 |
| CCC(=O)OC(=O)CC [Propanoic anhydride] | > 90 |
| O=C1OC(=O)c2cccc3cccc1c23 [1H,3H-Naphtho(1,8-cd)pyran-1,3-dione] | > 90 |
| CN(C)c1ccc(C(=C2C=CC(=[N+](C)C)C=C2)c2c(O)c(S(=O)(=O)[O-])cc3cc(S(=O)(=O)O)ccc23)cc1 [Acid green 50] | 30.6 |

Same assay, conditions: rat, gh3-tre-luc cells, AC50 (uM) modified / 1000, Tox21_110001=Tox21_111857; viability, 1 nM T3 present, 24 h

| SMILES | CC50 at 24 h [µM] |
| --- | --- |
| C[C@]12CC[C@H]3[C@@H](CCC4=C(Cl)C(=O)CC[C@@]43C)[C@@H]1CC[C@@H]2O [Clostebol] | > 50 |

Same assay, conditions: rat, gh3-tre-luc cells, AC50 (uM) modified / 1000, Tox21_110001=Tox21_112659; viability, 1 nM T3 present, 24 h

| SMILES | CC50 at 24 h [µM] |
| --- | --- |
| COC1CC(=C(c2cccs2)c2cccs2)C[N+](C)(C)C1 (centres unmarked) [Timepidium bromide] | > 50 |

Same assay, conditions: rat, gh3-tre-luc cells, AC50 (uM) modified / 1000, Tox21_110001=Tox21_112870; viability, 1 nM T3 present, 24 h

| SMILES | CC50 at 24 h [µM] |
| --- | --- |
| Cc1nc2ccccc2c(=O)n1-c1ccccc1Cl [Mecloqualone] | 42.7 |

Same assay, conditions: rat, gh3-tre-luc cells, AC50 (uM) modified / 1000, Tox21_110001=Tox21_200689; viability, 1 nM T3 present, 24 h

| SMILES | CC50 at 24 h [µM] |
| --- | --- |
| C[C@]12CC[C@H]3[C@@H](CCC4=CC(=O)CC[C@@]43C)[C@@H]1CC[C@@H]2O [Testosterone] | > 90 |

Same assay, conditions: rat, gh3-tre-luc cells, AC50 (uM) modified / 1000, Tox21_110001=Tox21_201634; viability, 1 nM T3 present, 24 h

| SMILES | CC50 at 24 h [µM] |
| --- | --- |
| CCOP(=S)(OCC)SCSC(C)(C)C [Terbufos] | > 90 |

Same assay, conditions: rat, gh3-tre-luc cells, AC50 (uM) modified / 1000, Tox21_110001=Tox21_201731; viability, 1 nM T3 present, 24 h

| SMILES | CC50 at 24 h [µM] |
| --- | --- |
| CNC(=O)O/N=C(\SC)C(=O)N(C)C [Oxamyl] | > 100 |

Same assay, conditions: rat, gh3-tre-luc cells, AC50 (uM) modified / 1000, Tox21_110001=Tox21_300810; viability, 1 nM T3 present, 24 h

| SMILES | CC50 at 24 h [µM] |
| --- | --- |
| CCOC(=O)Cc1ccccc1 [Ethyl phenylacetate] | > 90 |

Same assay, conditions: rat, gh3-tre-luc cells, AC50 (uM) modified / 1000, Tox21_110001=Tox21_301156; viability, 1 nM T3 present, 24 h

| SMILES | CC50 at 24 h [µM] |
| --- | --- |
| CNC(=O)O/N=C(\SC)C(=O)N(C)C [Oxamyl] | > 90 |
